Data from patent US8759535B2, “Substituted fused imidazole derivatives, pharmaceutical compositions, and methods of use thereof” (High Point Pharmaceuticals, LLC, priority 2010, dated 2014).
Counter-ions that a name gives are not always drawn.

tested on: HMOX1; assay: HMOX1 Protein Assay (immunostaining of HO-1 in NHLF cells, GE InCell 1000); type: cell-based; conditions: Homo sapiens, fold change above DMSO treated cells, 3 μM compound (asterisk), 16 h
Summary of the method: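 NHLF cells seeded overnight in FGM-2, then exposed to compound or DMSO vehicle for 16 h, fixed, and immunostained for HO-1 with Hoechst nuclear counterstain; imaged on InCell 1000. Values are fold change over DMSO-treated cells, generally at 5 μM (0.8% DMSO), with asterisked entries at 3 μM.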

Compound	fold induction at 3 µM
CN(C)CCCC[C@H](NC(=O)c1ccc2c(c1)nc(Nc1nc3ccc(C(F)(F)F)cc3s1)n2C)C(=O)N(C)C [Example 370, 1-Methyl-2-(6-trifluoromethyl-benzothiazol-2-ylamino)-1H-benzoimidazole-5-carboxylic acid ((S)-5-dimethylamino-1-dimethylcarbamoyl-pentyl)-amide]	19.3
Cn1c(Nc2nc3ccc(C(F)(F)F)cc3s2)nc2cc(C(=O)NCC(=O)N3CCOCC3)ccc21 [Example 422, 1-Methyl-2-(6-trifluoromethyl-benzothiazol-2-ylamino)-1H-benzoimidazole-5-carboxylic acid (2-morpholin-4-yl-2-oxo-ethyl)-amide]	25
Cn1c(Nc2nc3ccc(Cl)cc3s2)nc2cc(C(=O)NCC(=O)N3CC[C@H](O)C3)ccc21 [Example 401, 2-(6-Chloro-benzothiazol-2-ylamino)-1-methyl-1H-benzoimidazole-5-carboxylic acid [2-((S)-3-hydroxy-pyrrolidin-1-yl)-2-oxo-ethyl]-amide]	27
Cn1c(Nc2nc3ccc(Cl)cc3s2)nc2cc(C(=O)NCCCN)ccc21 [Example 345, 2-(6-Chloro-benzothiazol-2-ylamino)-1-methyl-1H-benzoimidazole-5-carboxylic acid (3-amino-propyl)-amide hydrochloride]	26.4
Cn1c(Nc2nc3ccc(Cl)cc3s2)nc2cc(C(=O)NCCOCC(F)F)ccc21 [Example 259, 2-(6-Chloro-benzothiazol-2-ylamino)-1-methyl-1H-benzoimidazole-5-carboxylic acid [2-(2,2-difluoro-ethoxy)-ethyl]-amide]	25.4
C[C@@H](NC(=O)c1ccc2c(c1)nc(Nc1nc3ccc(C(F)(F)F)cc3s1)n2C)C(=O)N1CCN(C)CC1 [Example 470, 1-Methyl-2-(6-trifluoromethyl-benzothiazol-2-ylamino)-1H-benzoimidazole-5-carboxylic acid [(R)-1-methyl-2-(4-methyl-piperazin-1-yl)-2-oxo-ethyl]-amide]	24.5
CCOc1ccc2nc(Nc3nc4cc(C(=O)NCC(=O)N(C)C)ccc4n3C)sc2c1 [Example 364, 2-(6-Ethoxy-benzothiazol-2-ylamino)-1-methyl-1H-benzoimidazole-5-carboxylic acid dimethylcarbamoylmethyl-amide]	27.8
Cn1c(Nc2nc3ccc(Cl)cc3s2)nc2cc(C(=O)NCCCCN)ccc21 [Example 347, 2-(6-Chloro-benzothiazol-2-ylamino)-1-methyl-1H-benzoimidazole-5-carboxylic acid (4-amino-butyl)-amide hydrochloride]	15.3
Cn1c(Nc2nc3ccc(Cl)cc3s2)nc2cc(C(=O)NCCN3CCOCC3)ccc21 [Example 340, 2-(6-Chloro-benzothiazol-2-ylamino)-1-methyl-1H-benzoimidazole-5-carboxylic acid (2-morpholin-4-yl-ethyl)-amide]	14.4

same assay, conditions: Homo sapiens, fold change above DMSO treated cells, 5 μM compound, 16 h

Compound	fold induction at 5 µM
Cn1c(Nc2nc3ccc(S(C)(=O)=O)cc3s2)nc2cc(C(=O)NCCS(C)(=O)=O)ccc21 [Example 131, 2-(6-Methanesulfonyl-benzothiazol-2-ylamino)-1-methyl-1H-benzimidazole-5-carboxylic acid (2-methylsulfonyl-ethyl)-amide]	6.8
COCCn1c(Nc2nc3ccc(Cl)cc3s2)nc2cc(C(=O)NCC3CCN(CCO)CC3)ccc21 [Example 304, 2-(6-Chloro-benzothiazol-2-ylamino)-1-(2-methoxy-ethyl)-1H-benzoimidazole-5-carboxylic acid [1-(2-hydroxy-ethyl)-piperidin-4-ylmethyl]-amide]	24.7
CCn1c(Nc2nc3ccc(OC(F)(F)F)cc3s2)nc2cc(C(=O)NC)ccc21 [Example 155, 1-Ethyl-2-(6-trifluoromethoxy-benzothiazol-2-ylamino)-1H-benzoimidazole-5-carboxylic acid methylamide]	24.3
Cn1c(Nc2nc3ccc(Cl)cc3s2)nc2cc(C(=O)NCCN3CCC(F)(F)CC3)ccc21 [Example 335, 2-(6-Chloro-benzothiazol-2-ylamino)-1-methyl-1H-benzoimidazole-5-carboxylic acid [2-(4,4-difluoro-piperidin-1-yl)-ethyl]-amide]	18.9
Cn1c(Nc2nc3ccc(OC(F)(F)F)cc3s2)nc2cc(C(=O)NC3(C(=O)O)CC3)ccc21 [Example 147, 1-{[1-Methyl-2-(6-trifluoromethoxy-benzothiazol-2-ylamino)-1H-benzimidazole-5-carbonyl]-amino}-cyclopropanecarboxylic acid]	1.8
CN(C(=O)CNC(=O)c1ccc2c(c1)nc(Nc1nc3ccc(Cl)cc3s1)n2C)C1CCNC1 (stereo not drawn) [Example 394, 2-(6-Chloro-benzothiazol-2-ylamino)-1-methyl-1H-benzoimidazole-5-carboxylic acid [(methyl-pyrrolidin-3-yl-carbamoyl)-methyl]-amide hydrochloride]	37.6
Cn1c(Nc2nc3ccc(Cl)cc3s2)nc2cc(C(=O)NCCOCCCF)ccc21 [Example 249, 2-(6-Chloro-benzothiazol-2-ylamino)-1-methyl-1H-benzoimidazole-5-carboxylic acid [2-(3-fluoro-propoxy)-ethyl]-amide]	31.2
Cn1c(Nc2nc3ccc(Cl)cc3s2)nc2cc(C(=O)NC[C@H]3CC[C@H](CO)CC3)ccc21 [Example 255, 2-(6-Chloro-benzothiazol-2-ylamino)-1-methyl-1H-benzoimidazole-5-carboxylic acid (trans-4-hydroxymethyl-cyclohexylmethyl)-amide]	49.3
Cn1c(Nc2nc3cc(F)ccc3s2)nc2cc(C(=O)O)ccc21 [Example 117, 2-(5-Fluoro-benzothiazol-2-ylamino)-1-methyl-1H-benzimidazole-5-carboxylic acid]	28.8
Cn1c(Nc2nc3ccc(OC(F)(F)F)cc3s2)nc2cc(C(=O)NCC(=O)N(CCO)CCO)ccc21 [Example 392, 1-Methyl-2-(6-trifluoromethoxy-benzothiazol-2-ylamino)-1H-benzoimidazole-5-carboxylic acid {[bis-(2-hydroxy-ethyl)-carbamoyl]-methyl}-amide]	24.9
CCOCCNC(=O)c1ccc2c(c1)nc(Nc1nc3ccc(OC(F)(F)F)cc3s1)n2CCF [Example 172, 1-(2-Fluoro-ethyl)-2-(6-trifluoromethoxy-benzothiazol-2-ylamino)-1H-benzoimidazole-5-carboxylic acid (2-ethoxy-ethyl)-amide]	21.4
Cn1c(Nc2nc3ccc(OC(F)(F)F)cc3s2)nc2cc(C(=O)NC(C)(C)C(=O)O)ccc21 [Example 148, 2-Methyl-2-{[1-methyl-2-(6-trifluoromethoxy-benzothiazol-2-ylamino)-1H-benzimidazole-5-carbonyl]-amino}-propionic acid]	12
Cn1c(Nc2nc3ccc(Cl)cc3s2)nc2cc(C(=O)NCC3CCN(CCO)CC3)ccc21 [Example 303, 2-(6-Chloro-benzothiazol-2-ylamino)-1-methyl-1H-benzoimidazole-5-carboxylic acid [1-(2-hydroxy-ethyl)-piperidin-4-ylmethyl]-amide]	25.6
CN(C)C1CCN(C(=O)CNC(=O)c2ccc3c(c2)nc(Nc2nc4ccc(Cl)cc4s2)n3C)CC1 [Example 456, 2-(6-Chloro-benzothiazol-2-ylamino)-1-methyl-1H-benzoimidazole-5-carboxylic acid [2-(4-dimethylamino-piperidin-1-yl)-2-oxo-ethyl]-amide]	67.3
C[C@H](O)CNC(=O)c1ccc2c(c1)nc(Nc1nc3ccc(OC(F)(F)F)cc3s1)n2C [Example 50, 1-Methyl-2-(6-trifluoromethoxy-benzothiazol-2-ylamino)-1H-benzoimidazole-5-carboxylic acid ((S)-2-hydroxy-propyl)-amide]	11.1
Cn1c(Nc2nc3ccc(OC(F)(F)F)cc3s2)nc2cc(C(=O)NCC(=O)N3CCOCC3)ccc21 [Example 138, 1-Methyl-2-(6-trifluoromethoxy-benzothiazol-2-ylamino)-1H-benzimidazole-5-carboxylic acid (2-morpholin-4-yl-2-oxo-ethyl)-amide]	11
CCn1c(Nc2nc3ccc(Cl)cc3s2)nc2cc(C(=O)NCCF)ccc21 [Example 176, 2-(6-Chloro-benzothiazol-2-ylamino)-1-ethyl-1H-benzoimidazole-5-carboxylic acid (2-fluoro-ethyl)-amide]	25.8
Cn1c(Nc2nc3ccc(OC(F)(F)F)cc3s2)nc2cc(C(=O)NCC(=O)N3CCC(C(N)=O)CC3)ccc21 [Example 451, 1-Methyl-2-(6-trifluoromethoxy-benzothiazol-2-ylamino)-1H-benzoimidazole-5-carboxylic acid [2-(4-carbamoyl-piperidin-1-yl)-2-oxo-ethyl]-amide]	51.3
COCCNC(=O)c1ccc2c(c1)nc(Nc1nc3ccc(C(F)(F)F)cc3s1)n2C [Example 25, 1-Methyl-2-(6-trifluoromethyl-benzothiazol-2-ylamino)-1H-benzoimidazole-5-carboxylic acid (2-methoxy-ethyl)-amide]	27.1
CNC(=O)c1ccc2c(c1)nc(Nc1nc3ccc(F)cc3s1)n2C [Example 124, 2-(6-Fluoro-benzothiazol-2-ylamino)-1-methyl-1H-benzimidazole-5-carboxylic acid methylamide]	22.9
Cn1c(Nc2nc3ccc(OC(F)(F)F)cc3s2)nc2cc(C(=O)NCC3CCCO3)ccc21 (stereo not drawn) [Example 18, 1-Methyl-2-(6-trifluoromethoxy-benzothiazol-2-ylamino)-1H-benzoimidazole-5-carboxylic acid (tetrahydro-furan-2-ylmethyl)-amide]	20.1
